The target of assay [1] is Human immunodeficiency virus type 1 protease (Human immunodeficiency virus 1) (UniProt Q72874). Kind of assay: Percent inhibition against isolated HIV-1 protease at a concentration of 1 ug/ml.
The test system of assay [2] is MT2. Kind of assay: Compound was tested for whole cell antiviral activity against MT2 cell lines. The settings on record: Homo sapiens. The format is functional, cell-based.
Assay [3] has as its system CCRF-CEM. Kind of assay: Compound was tested for whole cell antiviral activity against CEM cell lines. The format is functional, cell-based. The settings on record: Homo sapiens.
For assay [4], the target named is Human immunodeficiency virus type 1 protease (Human immunodeficiency virus 1, UniProt Q72874). Kind of assay: Compound was tested for inhibitory activity against isolated HIV-1 protease.

Converted amounts (≈) assume the structure as drawn.

In assay [1], `CC(C)(C)NC(=O)c1ccccc1[S+]([O-])C[C@@H](O)[C@H](Cc1ccccc1)NC(=O)[C@H](CC(N)=O)NC(=O)c1ccc2ccccc2n1` (stereo in doubt; 16b) showed an inhibition of 28%.
On to `CC(C)(C)NC(=O)c1ccccc1C[C@@H](O)[C@H](Cc1ccccc1)NC(=O)[C@H](CC(N)=O)NC(=O)c1ccc2ccccc2n1`, for which the IC50 came to 0.0317 mg/L (≈ 0.052 µM) in assay [2] and 0.0137 mg/L (≈ 0.0224 µM) in assay [3].
For the molecule `CC(C)(C)NC(=O)c1ccccc1SC[C@@H](O)[C@H](Cc1ccccc1)NC(=O)[C@H](Cc1c[nH]cn1)NC(=O)c1ccc2ccccc2n1`, the IC50 in assay [4] was 0.208 µM.
On to `CC(C)(C)NC(=O)c1ccccc1SC[C@@H](O)[C@H](Cc1ccccc1)NC(=O)[C@H](CC(N)=O)NC(=O)c1ccc2ccccc2n1`, for which the IC50 is 0.41 mg/L (≈ 0.639 µM) in assay [2], 0.48 mg/L (≈ 0.748 µM) in assay [3] and 0.0134 µM in assay [4].
In the case of `CC(C)(C)NC(=O)c1ccccc1[S+]([O-])C[C@@H](O)[C@H](Cc1ccccc1)NC(=O)[C@H](CC(N)=O)NC(=O)c1ccc2ccccc2n1` (stereo in doubt; 16a), in assay [1], the inhibition stood at 69%.
For the molecule `CC(C)(C)NC(=O)c1ccccc1SC[C@H](O)[C@H](Cc1ccccc1)NC(=O)[C@H](CC(N)=O)NC(=O)c1ccc2ccccc2n1`, the IC50 in assay [2] is 4.38 mg/L (≈ 6.82 µM); in assay [3] it was 4.99 mg/L (≈ 7.78 µM); in assay [4] it was 0.0561 µM.
`CC(C)(C)NC(=O)c1ccccc1S(=O)(=O)C[C@@H](O)[C@H](Cc1ccccc1)NC(=O)[C@H](CC(N)=O)NC(=O)c1ccc2ccccc2n1`: the IC50 in assay [4] is 0.509 µM.

For the origin of these results see ChEMBL document CHEMBL1127262, “Novel HIV01 protease inhibitors containing A -hydroxy sulfide isostere” (Bioorg Med Chem Lett, 1994).
